Entries after “also recorded” stand apart in the source; their conditions may differ.
Assays:
rat mammary tumor = assay: Biodistribution of 125I-NM324 in rat mammary tumor model; format: in vivo
[1] = molecular target: T1, PLC isolated from Bacillus cereus (Bacillus cereus, UniProt P09598); assay: PLC substrate assay; format: biochemical
T1 construct: PLC isolated from Bacillus cereus; endogenous in cells; host or cells: Bacillus cereus
Protocol: (§1) Formal metabolism studies were conducted on several PLE analogs including NM324, the predecessor of NM404. In these studies, each agent was examined to determine its ability to serve as substrates for enzymes associated with PLE metabolism. Three major enzymatic pathways are involved in the metabolism of PLE. O-Alkyl glycerol monooxygenase (AGMO) is responsible for cleavage of the alkyl ether linkage at C-1 to form either the long chain fatty alcohol or subsequently, the corresponding fatty acid. Phospholipases C (PLC) and D (PLD), on the other hand, give rise to the glycerol or phosphatidic acid products, respectively.

serum proteins = details: cited from earlier work
[2] = tested on: carrageenan-induced granulomas; assay: Uptake into inflammatory lesions; set-up: species or system rats; details: rat, in vivo
From the text: The utility of tumor tracers like ^67Ga-citrate and ^18F-FDG is limited by their lack of specificity to distinguish neoplasm from inflammation. Further, accumulation of FDG in the urine interferes with visualization of pelvic and abdominal abnormalities. This lack of specificity is a significant clinical issue in patients with cancer. […] Some exemplary embodiments of PLE analogs discussed herein are illustrated in FIG. 1. […] Although FDG-PET has paved the way for hybrid imaging, its lack of tumor cell specificity will always limit its diagnostic efficacy. New molecularly targeted agents, like NM404, which display universal tumor uptake and selective retention regardless of location, as well as selectivity for malignant tumor cells and not inflammatory or hyperplastic lesions, represents a significant improvement in the detection, targeting and characterization of cancer.

animal tumor models [3] = details: radioiodinated analogs, xenograft and spontaneous tumor rodent models, previous reports; cited from earlier work
human lung cancer = assay: Clinical evaluation of NM324, scintigraphy; format: in vivo; details: for tumor uptake / detection: scintigraphy in lung cancer patients
From the text: FIG. 10 is a scintigraphic image of the anterior chest of Patient 03 acquired at 1, 2, and 6 days after iv administration of 1 mCi ^131I-NM324.
Based upon this work, NM404 [18-(4-iodophenyl)-octadecyl phosphocholine] emerged due to its enhanced ability to localize in tumor, its increased metabolic clearance from the liver, and its longer plasma half-life.

[4] = molecular target: T2, O-Alkyl glycerol monooxygenase (AGMO) (Homo sapiens, UniProt Q6ZNB7); assay: Microsomal AGMO substrate assay; format: biochemical; details: microsomal enzyme preparation
T2 construct: Using a microsomal AGMO enzyme preparation; from tissue
Protocol: as §1

Blood plasma kinetics = assay: Blood plasma kinetics; set-up: species or system rats; details: rat, in vivo
animal tumor models [5] = assay: Imaging and biodistribution across animal tumor models (general statements); details: mammary, prostate, squamous cell carcinoma, ovarian, colorectal, melanoma
From the text: See, for example, U.S. patent application Ser. Nos. 10/906,687, 11/177,740, 11/316,620 and 11/382,645. Due to deficiencies in metabolic phospholipase enzymes in the membranes of malignant tumor cells, the prevailing hypothesis for this specificity is that phospholipid ether analogs become trapped exclusively in tumor cell membranes because of their inability to become metabolized and eliminated by the cancerous cell. Thus, the differential clearance rates of phospholipid ethers from normal cells versus neoplastic tumor cells are responsible for this specificity.
The reason for the retention of PLE and analogs in cancer cells remains unknown. Without being held to any particular theory, however, the prevailing hypothesis, is that radioiodinated PLE and APC analogs become trapped in tumor cell membranes because of their inability to be metabolized and eliminated. On the other hand, such lipid molecules are metabolized and cleared by normal tissues, including the liver.
These PLE analogs are specifically designed to incorporate aromatic radioiodine in order to render the molecule stable towards in vivo deiodination.

Prostate MatLyLu = assay: Gamma camera scintigraphy screen in Dunning R3327 (MAT LyLu) prostate cancer model; format: in vivo, Copenhagen rats; details: radioiodinated analog 30-40 μCi, images incl. 24 and 48 hours post injection
Protocol: The avidity of PLE and APC analogs to localize in tumors was evaluated in several animal models. The PC-3 model represents a human tumor cell line that was used to determine the target (tumor) to non-target ratio of NM404 and NM412 in head to head comparison in order to select a candidate for an initial human pharmacokinetic trial in prostate cancer patients. The MatLyLu (Dunning R3327 rat) model, a rat prostate tumor line, was used specifically to screen 9 specific analogs prior to entering them into control for dosimetry and tumor-bearing animals for determining tumor/background ratios. Finally, the Walker-256 carcinosarcoma model was used for quantitative tissue distribution purposes.
In order to expedite the screening process and minimize the number of tumor bearing animals utilized in multiple time point tissue distribution studies, new radioiodinated homologs were imaged by gamma camera scintigraphy in the rat Dunning […] (MAT LyLu strain) prostate cancer model. Thus, male Copenhagen rats received a subcutaneous injection of MAT LyLu cells (1×10^6 cells) in the thigh 10-14 days prior to injection of the radioiodinated PLE analogs (30-40 μCi) in 2% Tween-20 solution. Gamma camera images were obtained at multiple time points including 24 and 48 hours post injection. […] Tissue distribution of radioactivity in rats bearing Walker-256 carcinosarcoma was assessed at various time intervals following intravenous administration of the radioiodinated chain length homologs. The first group of compounds that was tested included three alkylphosphocholines: a shorter chain analog with seven carbons NM396 and two analogs with a longer chain length, 13 (NM397, C15 alkyl chain length) and 1 (NM404, C18 alkyl chain length).
In order to decrease liver uptake and prolong the plasma phase, the inventors examined 9 structural analogs of NM324 to identify agents that would display improved tumor-to-background tissue ratios with decreased liver uptake. The new PLE analogs were synthesized and radiolabeled with ^125I for initial image analysis in Copenhagen rats bearing Dunning R3327 prostate tumors. […] NM404 was therefore selected to undergo further imaging and biodistribution analysis in a variety of animal-tumor models.

[6] = tested on: human PC-3 prostate tumor xenografts; assay: Scintigraphy, microPET and tissue distribution in PC-3 tumor model; format: in vivo, SCID mice; details: advanced metastatic PC-3, 48 h post iv injection
[7] = tested on: non-small cell lung cancer (NSCLC); assay: Initial human pharmacokinetic evaluation, planar gamma-camera scintigraphy; format: in vivo; details: <1 mCi injection, preliminary, n=3
From the text: FIG. 6A-C images of lung cancer patient, posterior whole body planar nuclear medicine image (A) 4 days after iv administration of ^131I-NM404 (0.8 mCi) to a patient with non small cell lung cancer (6 cm dia., arrow). Lung tumor is easily detected in corresponding axial (B) and coronal (C) computed tomography (CT) scans;
In preparation for human clinical trials, unlabeled NM404 was subjected to independent (University of Buffalo Toxicology Research Center) acute toxicity evaluation at 1200 times the anticipated imaging mass dose in rats and rabbits. […] Due to its selective tumor uptake and retention properties in a variety of rodent tumor models and subsequent excellent safety profile in rats and rabbits, NM404 was selected to undergo initial human pharmacokinetic evaluation in non-small cell lung cancer (NSCLC) patients. Patients underwent planar gamma-camera scintigraphy after receiving an injection of ^131I-NM404 (<1 mCi).

[8] = excess boron ingestion; cited from earlier work

T1 sequence (P09598 39-283 limits assumed): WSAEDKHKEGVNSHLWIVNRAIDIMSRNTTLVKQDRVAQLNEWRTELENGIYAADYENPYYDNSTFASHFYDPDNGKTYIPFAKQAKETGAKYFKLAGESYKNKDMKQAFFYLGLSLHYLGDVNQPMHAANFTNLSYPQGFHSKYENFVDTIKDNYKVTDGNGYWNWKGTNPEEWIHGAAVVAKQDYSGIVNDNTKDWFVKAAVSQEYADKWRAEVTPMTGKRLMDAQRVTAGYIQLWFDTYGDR
T2 sequence (Q6ZNB7 whole entry, species assumed): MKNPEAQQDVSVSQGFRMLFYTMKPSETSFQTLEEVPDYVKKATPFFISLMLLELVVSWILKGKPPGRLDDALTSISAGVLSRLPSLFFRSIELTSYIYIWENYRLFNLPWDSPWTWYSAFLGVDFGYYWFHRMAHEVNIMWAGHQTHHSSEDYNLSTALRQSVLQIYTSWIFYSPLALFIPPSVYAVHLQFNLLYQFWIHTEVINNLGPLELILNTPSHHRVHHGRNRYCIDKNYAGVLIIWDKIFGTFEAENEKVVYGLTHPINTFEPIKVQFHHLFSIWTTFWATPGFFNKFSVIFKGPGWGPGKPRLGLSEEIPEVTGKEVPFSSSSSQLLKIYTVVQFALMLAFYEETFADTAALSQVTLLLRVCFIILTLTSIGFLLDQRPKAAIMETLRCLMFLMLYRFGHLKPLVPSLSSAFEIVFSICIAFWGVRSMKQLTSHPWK

Structure (SMILES): C[N+](C)(C)CCOP(=O)([O-])OCCCCCCCCCCCCc1cccc([125I])c1 [Compound 125I-NM324]
- tumor-to-blood ratio (rat mammary tumor; 96 hours): 8.6
- time of maximum tumor-to-normal tissue ratios (rat mammary tumor; rat, in vivo): 96 h

Structure (SMILES): [3H]C(CCCCCC)C([3H])CCCCCCCC(=O)O[C@H](COC(=O)CCCCCCCCCCCCCCC)COP(=O)([O-])OCC[N+](C)(C)C (stereo partly drawn) [DPPC, 1-palmitoyl-2-[^3H]-palmitoyl-L-3-phosphatidylcholine, reference compound]
- hydrolysis by PLC [1]: underwent significant hydrolysis

Structure (SMILES): CCCCCCCCCCCCCCCCCCOCC(COP(=O)([O-])OCC[N+](C)(C)C)OC (stereo not drawn) [ET-18-OCH3]
- ether lipid bound to HDL (serum proteins): about 6%
- ether lipid bound to albumin (serum proteins): 71%

Structure (SMILES): O=C([O-])CC(O)(CC(=O)[O-])C(=O)[O-].[Ga+3] [Gallium citrate, reference compound]
- uptake and retention in granulomas [2]: concentrate significantly in the granulomatous lesions

Structure (SMILES): COC(COCCCCCCCCCCCCc1cccc([125I])c1)COP(=O)([O-])OCC[N+](C)(C)C (stereo not drawn) [NM294]
- selective retention by tumors (animal tumor models [3]): selectively retained by a variety of human and animal tumors

Structure (SMILES): C[N+](C)(C)CCOP(=O)([O-])OCCCCCCCCCCCCc1cccc(I)c1 [NM324, 12-(m-iodophenyl)dodecyl phosphocholine]
- uptake and retention in granulomas [2]: no uptake and retention
- liver uptake (human lung cancer; initial human pharmacokinetic studies): high liver uptake values; also recorded: unacceptable accumulation in liver tissue; also recorded: images were complicated by high liver radioactivity
- tumor uptake / detection (human lung cancer): detected tumors
- substrate for AGMO [4]: not a substrate
- hydrolysis by PLC [1]: not hydrolyzed
- elimination half life time in plasma (Blood plasma kinetics): 2.43 h
- tumor visualization by scintigraphy (animal tumor models [5]): successfully visualized
- selective retention by tumors (animal tumor models [3]): selectively retained by a variety of human and animal tumors

Structure (SMILES): COC(COCCCCCCCCCCCCCCCCCCc1ccc(I)cc1)COP(=O)([O-])OCC[N+](C)(C)C (stereo not drawn) [NM410]
- gamma camera imaging findings (tumor, liver, abdomen) (Prostate MatLyLu): high hepatic uptake, significant abdominal accumulation and retention or poor tumor uptake and retention; also recorded: high radioactivity levels in the liver and abdomen with little to no uptake of the agent into tumors

Structure (SMILES): C[N+](C)(C)CCOP(=O)([O-])OCCCCCCCCCCCCCCCCCCc1ccc([124I])cc1 [^124I-NM404]
- microPET uptake in primary tumor and lymph nodes [6]: significant uptake

Structure (SMILES): C[N+](C)(C)CCOP(=O)([O-])OCCCCCCCCCCCCc1cccc([131I])c1 [^131I-NM324]
- tumor uptake / detection (human lung cancer): Uptake is seen in the left lingular lung cancer (T) with increasing tumor-to-background ratios over time

Structure (SMILES): C[N+](C)(C)CCOP(=O)([O-])OCCCCCCCCCCCCCCCCCCc1ccc([131I])cc1 [^131I-NM404]
- tumor uptake and retention [7]: tumor uptake and prolonged retention in primary lung tumors

Structure (SMILES): OB(O)O [boric acid]
- excretion [8]: excreted rapidly in the urine
- time to disappearance [8]: ≤ 4 days
